Consider eight compounds from publication PMC8779140 (Pharmaceutics, 2022).

“Also recorded” adds a separate entry of the source. Read-outs that look alike come from different tables or passages of the source. *1 amine or outer side, *2 acyl side, *3 side chain or, on linkers, in order; H or OH if unused. Where a SMILES comes first, the peptide text is derived from it. Bridges are numbered along the chain shown (N, C = ends). Roman numbers before positions name the chains, in order. [ ]: non-standard residue; d: D form. Actinocin(9to1) = Cc1c2oc3c(C)ccc(C(=O)[*:1])c3nc-2c(C(=O)[*:2])c(N)c1=O; NMeV = CN[C@H](C(=O)O)C(C)C; Sar = CNCC(=O)O

The target of series [1] is T1, SARS-CoV-2 PL^pro (Severe acute respiratory syndrome coronavirus 2, UniProt P0DTD1).
T1 construct: The synthetic gene of SARS-CoV-2 PL^pro was cloned into the pET16b vector; made in house; host or cells: E. coli BL21(DE3)
The series is described as follows: biochemical.

The target of series [2] is T2, human TMPRSS2 (Homo sapiens, UniProt O15393).
T2 construct: the purified MBP-tagged TMPRSS2 (residues 256-492) activity; made in house; host or cells: E. coli BL21 (DE3)
The experiment in a line: Inhibition assay of human TMPRSS2 (fluorogenic peptide). Format: biochemical. As for the experimental part: Cloning of TMPRSS2 was performed as previously reported. The synthetic gene encoding the catalytic domain of human TMPRSS2 (residues 256–492) was cloned into the pMAL-c5X vector (New England Biolabs). This plasmid was transformed into E. coli BL21 (DE3) for protein overexpression. Overnight culture of a single transformant (5 mL) was added to 500 mL of fresh LB medium containing […] ampicillin. The cells were grown to an OD600 of 0.6 and added with 1 mM isopropyl-β-thiogalactopyranoside for further 20 h incubation at 16 °C for recombinant protein production. The cells were harvested by centrifugation at 7000× g for 15 min.
Purification of the maltose-binding protein (MBP)-tagged TMPRSS2 was conducted at 4 °C. The cell paste obtained from the cell culture (1 L) was suspended in a lysis buffer (40 mL) containing 25 mM Tris-HCl (pH 7.5) and 150 mM NaCl. To disrupt the cells, a French press was used. The cell-free extract was loaded onto a 10 mL amylose resin column (New England Biolabs, Ipswich, MA, USA) equilibrated with the lysis buffer. The column was washed with 10 column volumes of lysis buffer, and then the MBP-tagged TMPRSS2 bound to the amylose resin was eluted with the elution buffer (25 mM Tris, pH 7.5, 150 mM NaCl, and 10 mM maltose).
For assaying the inhibition of the purified MBP-tagged TMPRSS2 (residues 256-492) activity, a fluorogenic peptide substrate, Boc-Gln-Ala-Arg-AMC, was used with excitation at 355 nm and emission at 460 nm. The enzyme (0.22 μM) was preincubated in the presence or absence of various concentrations of inhibitors in 20 mM HEPES and pH 7.5 assay buffer for 10 min in black 96-well immuno plates (Thermo Scientific). Next, the fluorescent substrate (10 μM) was added and incubated for 60 min at room temperature. The reactions were monitored by using a fluorescence plate reader (Fluoroskan Ascent, Thermo Labsystems, Franklin, MA, USA). The initial velocities of the inhibited reactions were plotted against the different inhibitor concentrations to yield the IC50 value by fitting with the equation A(I) = A(0) × {1 − [I/(I + IC50)]}. In this equation, A(I) is the enzyme activity with inhibitor concentration I, and A(0) is the enzyme activity without an inhibitor. For each data point, the measurements were repeated thrice to yield the mean and standard deviation.

Series [3] concerns the target SARS-CoV-2 3CL^pro (Severe acute respiratory syndrome coronavirus 2, UniProt P0DTD1). The experiment in a line: biochemical.
Series [4] deals with SARS-CoV-2. The experiment in a line: Plaque reduction assay in Vero E6 cells. Format: cell-based. To be noted: 120 h.
In series [5] the test system is Vero E6 cells.
The conditions of series [6]: cited from earlier work.
Series [7] addresses spike RBD–ACE2 interaction (wild-type) (Severe acute respiratory syndrome coronavirus 2, UniProt P0DTC2). In kind it is cell-based, SARS-CoV-2. To be noted: RBD attachment assay.
Series [8] has as its system Vero E6 cells. The series is described as follows: Cytotoxicity seen in the plaque reduction assay. As to conditions: Figure 7b, seen at 0.2 μM. (Plaque reduction counts the foci of infection that form in a cell layer.)
[9] abbreviates: 75 nM PL^pro, 10 μM z-Arg-Leu-Arg-Gly-Gly-AMC, pH 7.5, read-out: IC50.
[10] abbreviates: 0.22 μM MBP-tagged TMPRSS2 (residues 256-492), 10 μM Boc-Gln-Ala-Arg-AMC, read-out: IC50.

T2 sequence (O15393 256-492): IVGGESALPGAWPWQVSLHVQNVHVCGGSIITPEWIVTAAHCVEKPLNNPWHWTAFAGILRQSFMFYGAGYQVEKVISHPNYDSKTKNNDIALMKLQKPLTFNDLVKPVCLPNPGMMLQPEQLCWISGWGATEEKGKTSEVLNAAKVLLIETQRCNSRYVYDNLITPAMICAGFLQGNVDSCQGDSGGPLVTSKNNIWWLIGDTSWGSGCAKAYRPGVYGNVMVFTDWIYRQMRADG

With `CCOc1cc2ncc(C#N)c(Nc3ccc(OCc4ccccn4)c(Cl)c3)c2cc1NC(=O)/C=C/CN(C)C` [Neratinib], the figures for the IC50 in series [1] (setting [9]) and in series [2] (setting [10]) were 11.6 ± 2.9 µM and 25.9 ± 3.2 µM, respectively.

`Cc1c2oc3c(C)ccc(C(=O)N[C@@H]4C(=O)N[C@H](C(C)C)C(=O)N5CCC[C@H]5C(=O)N(C)CC(=O)N(C)[C@@H](C(C)C)C(=O)O[C@@H]4C)c3nc-2c(C(=O)N[C@@H]2C(=O)N[C@H](C(C)C)C(=O)N3CCC[C@H]3C(=O)N(C)CC(=O)N(C)[C@@H](C(C)C)C(=O)O[C@@H]2C)c(N)c1=O` [Dactinomycin] (I: T[dV]P[Sar][NMeV] / II: T[dV]P[Sar][NMeV]; ester I:1-I:C, II:1-II:C; linker I:N-II:N via Actinocin(9to1)): the IC50 in series [1] (setting [9]) was found to be 14.7 ± 2.6 µM; in series [3] (35 nM 3CL^pro, 6 μM fluorogenic substrate, pH 7.0, read-out: IC50), 37.6 ± 2.8 µM.

As to `COc1cccc2c1C(=O)c1c(O)c3c(c(O)c1C2=O)C[C@@](O)(C(=O)CO)C[C@@H]3O[C@H]1C[C@H](N)[C@H](O)[C@H](C)O1` [Doxorubicin], the IC50 in series [1] is 4.6 ± 0.8 µM; in series [2] (setting [10]), 8.2 ± 1.6 µM. In series [4] (10 μM), the “antiviral activity in plaque reduction assay” value was “did not effectively inhibit the replication and infection of the virus”.

On to `CC/C(=C(\c1ccccc1)c1ccc(OCCN(C)C)cc1)c1ccccc1` [Tamoxifen], for which, in series [4] (10 μM), the “antiviral activity in plaque reduction assay” value is “robustly protected cells from the viral infection”. The compound also yielded an IC50 in series [2] of 21.4 ± 1.6 µM. In addition, in series [5], the cytotoxicity result is “without apparent cytotoxicity”. For the same compound, the half-life in series [6] was 5 to 7 days.

Turning to `CN(C)C/C=C/C(=O)Nc1cc2c(Nc3ccc(F)c(Cl)c3)ncnc2cc1O[C@H]1CCOC1` [Afatinib], the IC50 in series [1] (setting [9]) stood at 45.6 ± 4.2 µM; in series [2] it was 28.4 ± 1.5 µM.

Regarding `CO[C@H]1C[C@@H]2CC[C@@H](C)[C@@](O)(O2)C(=O)C(=O)N2CCCC[C@H]2C(=O)O[C@H]([C@H](C)C[C@@H]2CC[C@@H](O)[C@H](OC)C2)CC(=O)[C@H](C)/C=C(\C)[C@@H](O)[C@@H](OC)C(=O)[C@H](C)C[C@H](C)/C=C/C=C/C=C/1C` [Rapamycin], in series [1] (setting [9]), the IC50 is 31 ± 2.4 µM. Further, in series [4] (20 μM), the “antiviral activity in plaque reduction assay” value was “did not exert a significant effect on the inhibition of viral infection”. In series [7], the “inhibition of RBD–ACE2 interplay (in words)” value was “could not efficiently inhibit the interplay between the RBD and ACE2”. Besides, the “inhibition of TMPRSS2 (in words)” value in series [2] (IC50 threshold 50 μM) was “did not inhibit”.

As for `O=C(Nc1ccc([N+](=O)[O-])cc1Cl)c1cc(Cl)ccc1O` [Niclosamide], the IC50 in series [1] was 16.6 ± 1.8 µM; in series [3] it was 18.7 ± 0.9 µM. The “antiviral activity in plaque reduction assay” value in series [4] (0.2 μM) was “demonstrated antiviral property”. For the same compound, the cytotoxicity result in series [8] is “cells appeared broken into tiny particles, revealing the cytotoxicity; also recorded: high cytotoxicity”.

`CCN(CC)CCCC(C)Nc1c2ccc(Cl)cc2nc2ccc(OC)cc12` (centres unmarked) [Mepacrine]: the IC50 in series [1] was determined as 4.4 ± 0.9 µM; in series [2] (setting [10]) it was 29.9 ± 3.7 µM.

A word on the IC50: it is the concentration that inhibits the measured activity by half. The half-life is the time in which the quantity being followed falls by half.
